Measured values from US20250171404A1, “PCNA INHIBITORS AND USES THEREOF” (CITY OF HOPE, priority 2022, published 2025).

Assays:
[1] = tested on: SK-N-BE(2)c xenograft tumors; test: Xenograft tumor model, neuroblastoma; type: in vivo, mice
Procedure: FIGS. 4A-4H. Pharmacokinetics and anti-tumor growth activity of AOH1996 in vivo. FIG. 4A: After oral administration, the plasma concentrations of AOH1996 from three male and three female ES1^e/SCID mice at the indicated time points were averaged and graphed ±S.D. The inset contains PK parameters determined by a standard noncompartmental method. FIG. 4B: A similar PK study of AOH1996 was performed in dogs. FIGS. 4C-4E: Mice bearing the xenograft tumors of neuroblastoma (FIG. 4C: SK-N-BE(2)c), breast cancer (FIG. 4D: MDA-MB-468), and small-cell lung cancer (FIG. 4E: H82) were given vehicle only (black) or 40 mg/kg of AOH1996 (grey) twice daily immediately after the first measurement. Tumor sizes were measured by a dial caliper each week. Tumor volumes (0.4×L×W^2) were averaged and graphed ±S.E. (*, P<0.01). FIG. 4F: Animal body weight was monitored throughout the studies as an indicator of toxicity. Shown is a typical study results from the study of the SK-N-BE(2)c tumor model described in (FIG. 4C). FIG. 4G: The levels of phosphor-Chk1 (pChk1) and γH2A.X in SK-N-BE(2)c derived tumor samples were analyzed by IHC. Shown are representative images taken from tumors treated by vehicle only or by 40 mg/kg AOH1996. FIG. 4H: ES1^e/SCID mice bearing SK-N-AS derived xenograft tumors were treated with either 80 mg/kg of AOH1996 (black, n=7) for 8 d beginning 8 d after tumor implantation, 15 mg/kg of CPT-11 (n=8) for 3 d beginning 12 d after tumor implantation, or both agents (combination, n=8) under the same dosages and schedules as they were dosed alone. […] The p values determined by the Log-rank (Mantel-Cox) test between combination treatment and each of the control groups are p=0.0003 (Combination vs. NoRx), p=0.005 (Combination vs. AOH1996 alone), and p=0.024 (Combination vs. CPT-11 alone).
In vivo tumor model. […] Tumor size and animal weight were measured weekly. At the end of the experiment, tumors were isolated from sacrificed mice and analyzed by immunohistochemistry staining with antibodies specific for phosphor-Chk1 and γH2A.X.

[2] = tested on: PCNA and MCM7 on chromatin, MDA-MB-468 cells; test: Cell fractionation, chromatin-bound PCNA and MCM7; type: cell-based, human; conditions: 5, 50, or 500 nM, 24 h
Procedure: FIGS. 7A-7E. Transcription dependent effect on DNA replication and damage. FIG. 7A: Left: Schematic of the cell fractionation procedure. Right: MDA-MB-468 cells were treated by increasing concentrations of AOH1996 (5, 50, or 500 nM) for 24 h. Cells treated with DMSO were used as control. Whole cell extract (WCE) and protein fractions associated with actively transcribed chromatin (CB:RNA+) or with low or non-transcribed chromatin (CB:RNA−) were analyzed by Western blot using antibodies against PCNA, CAF-1, and MCM7. FIG. 7B: Synchronized cancer cells were sequentially incubated in the presence of CldU (light grey) and IdU (dark grey) before and after AOH1996 treatment, respectively. […] Middle and Right: Lengths of CldU (light grey) and IdU (dark grey) incorporated DNA segments measured for more than 30 independent DNA strands from the indicated cancer cell type were averaged and graphed ±S.D. FIG. 7C: Whole cell lysates were extracted from SK-N-AS cells homozygous of the wildtype RPB1 allele or the APIM-mutant allele. Histone H2A.X and γH2A.X was analyzed by Western blot after treatment with or without AOH1996 overnight. FIG. 7D: Histone H2A.X and γH2A.X in whole cell lysates from SK-N-AS cells were analyzed by Western blot after treatment with 500 nM AOH1996 and/or 50 μM DRB overnight. […]

COc1cccc(Oc2ccccc2NC(=O)CNC(=O)c2cccc3ccccc23)c1 [AOH1996, N-(2-((2-(3-methoxyphenoxy)phenyl)amino)-2-oxoethyl)-1-naphthamide]
pharmacodynamics markers in tumors (immunohistochemistry) ([1]; 40 mg/kg AOH1996 vs vehicle): Focal staining of γH2A.X and phospho-Chk1 were observed
tumor burden ([1]; 40 mg/kg twice daily, oral, vs vehicle): significantly reduced tumor burden
death, body weight ([1]; xenograft studies, 40 mg/kg twice daily): did not cause any death or significant weight loss
association of PCNA and MCM7 with chromatin [2]: caused dissociation of PCNA and MCM7 from the actively transcribed open chromatin regions
